Test results taken from patent US20230143604A1, “QW DOSING OF GIP RECEPTOR AGONIST PEPTIDE COMPOUNDS AND USES THEREOF” (TAKEDA PHARMACEUTICAL COMPANY LIMITED, priority 2020, published 2023).
Starred links: 1 amine or outer side, 2 acyl side, 3 side chain; linkers in the order of their positions; H or OH if unused. Non-standard residues stand in square brackets, D forms with d. Residues, ends and D or L forms follow the SMILES beside them. Groups on a side chain read outwards from the residue. *: point of attachment. C20 diacid = O=C(O)CCCCCCCCCCCCCCCCCCC(=O)*; C18 diacid = O=C(O)CCCCCCCCCCCCCCCCC(=O)*; γGlu = O=C(O)[C@H](CCC(=O)[*:2])N[*:1]; NMeY = CN[C@@H](Cc1ccc(O)cc1)C(=O)O; AEEA = NCCOCCOCC(=O)O; Aib = CC(C)(N)C(=O)O

Assay: physchem
Procedure, shortened: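 3 mg of peptide treated with 100 μL portions of 200 mM phosphate buffer pH 7.4, sonicating/vortexing up to 1 min, with further buffer added until fully dissolved. Solubility then quantified by HPLC.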

CC[C@H](C)[C@H](NC(=O)[C@H](CO)NC(=O)[C@H](Cc1ccc(O)cc1)NC(=O)[C@H](CC(=O)O)NC(=O)[C@H](CO)NC(=O)[C@@H](NC(=O)[C@H](Cc1ccccc1)NC(=O)[C@@H](NC(=O)CNC(=O)[C@H](CCC(=O)O)NC(=O)C(C)(C)NC(=O)[C@H](Cc1ccc(O)cc1)NC)[C@@H](C)O)[C@@H](C)CC)C(=O)N[C@@H](C)C(=O)N[C@@H](CCCCNC(=O)CNC(=O)CNC(=O)CNC(=O)CNC(=O)CNC(=O)CCCCCCCCCCCCCCCCC(=O)O)C(=O)N[C@@H](CC(=O)O)C(=O)N[C@@H](CCCNC(=N)N)C(=O)NC(C)(C)C(=O)N[C@@H](C)C(=O)N[C@@H](CCC(N)=O)C(=O)NC(C)(C)C(=O)N[C@@H](CC(N)=O)C(=O)N[C@@H](Cc1ccccc1)C(=O)N[C@H](C(=O)N[C@@H](CC(N)=O)C(=O)N[C@@H](Cc1c[nH]c2ccccc12)C(=O)N[C@@H](CC(C)C)C(=O)N[C@@H](CC(C)C)C(=O)N[C@@H](C)C(=O)N[C@@H](CCC(N)=O)C(=O)N[C@@H](CCCNC(=N)N)C(=O)O)C(C)C [Compound 251]
solubility (pH 7.4, aqueous buffer): ≥ 7 mg/mL

CC[C@H](C)[C@H](NC(=O)[C@H](CO)NC(=O)[C@H](Cc1ccc(O)cc1)NC(=O)[C@H](CC(=O)O)NC(=O)[C@H](CO)NC(=O)[C@@H](NC(=O)[C@H](Cc1ccccc1)NC(=O)[C@@H](NC(=O)CNC(=O)[C@H](CCC(=O)O)NC(=O)C(C)(C)NC(=O)[C@H](Cc1ccc(O)cc1)NC)[C@@H](C)O)[C@@H](C)CC)C(=O)N[C@@H](C)C(=O)N[C@@H](CC(C)C)C(=O)N[C@@H](CC(=O)O)C(=O)N[C@@H](CCCNC(=N)N)C(=O)NC(C)(C)C(=O)N[C@@H](C)C(=O)N[C@@H](CCC(N)=O)C(=O)NC(C)(C)C(=O)N[C@@H](CCCCNC(=O)COCCOCCNC(=O)COCCOCCNC(=O)CC[C@H](NC(=O)CC[C@H](NC(=O)CCCCCCCCCCCCCCCCCCC(=O)O)C(=O)O)C(=O)O)C(=O)N[C@@H](Cc1ccccc1)C(=O)N[C@H](C(=O)N[C@@H](CC(N)=O)C(=O)N[C@@H](Cc1c[nH]c2ccccc12)C(=O)N[C@@H](CC(C)C)C(=O)N[C@@H](CC(C)C)C(=O)N[C@@H](C)C(=O)N[C@@H](CCC(N)=O)C(=O)N[C@@H](CCCNC(=N)N)C(N)=O)C(C)C [Compound 272] (H-[NMeY][Aib]EGTFISDYSIALDR[Aib]AQ[Aib]K([AEEA-AEEA-γGlu-γGlu-C20 diacid])FVNWLLAQR-NH2)
solubility (pH 7.4, aqueous buffer): ≥ 7.5 mg/mL

CC[C@H](C)[C@H](NC(=O)[C@H](CO)NC(=O)[C@H](Cc1ccc(O)cc1)NC(=O)[C@H](CC(=O)O)NC(=O)[C@H](CO)NC(=O)[C@@H](NC(=O)[C@H](Cc1ccccc1)NC(=O)[C@@H](NC(=O)CNC(=O)[C@H](CCC(=O)O)NC(=O)C(C)(C)NC(=O)[C@H](Cc1ccc(O)cc1)NC)[C@@H](C)O)[C@@H](C)CC)C(=O)N[C@@H](C)C(=O)N[C@@H](CC(C)C)C(=O)N[C@@H](CC(=O)O)C(=O)N[C@@H](CCCNC(=N)N)C(=O)N[C@@H](CCCCNC(=O)COCCOCCNC(=O)COCCOCCNC(=O)CC[C@H](NC(=O)CCCCCCCCCCCCCCCCC(=O)O)C(=O)O)C(=O)N[C@@H](Cc1c[nH]cn1)C(=O)N[C@@H](CCC(N)=O)C(=O)N[C@@H](CCC(N)=O)C(=O)N[C@@H](CC(N)=O)C(=O)N[C@@H](Cc1ccccc1)C(=O)N[C@H](C(=O)N[C@@H](CC(N)=O)C(=O)N[C@@H](Cc1c[nH]c2ccccc12)C(=O)N[C@@H](CC(C)C)C(=O)N[C@@H](CC(C)C)C(=O)N[C@@H](C)C(=O)N[C@@H](CCC(N)=O)C(=O)N[C@@H](CCCCN)C(=O)O)C(C)C [Compound 246] (H-[NMeY][Aib]EGTFISDYSIALDRK([AEEA-AEEA-γGlu-C18 diacid])HQQNFVNWLLAQK-OH; C-terminus assumed)
solubility (pH 7.4, aqueous buffer): ≥ 0.7 mg/mL

CC[C@H](C)[C@H](NC(=O)[C@H](Cc1ccccc1)NC(=O)[C@@H](NC(=O)CNC(=O)[C@H](CCC(=O)O)NC(=O)C(C)(C)NC(=O)[C@H](Cc1ccc(O)cc1)NC)[C@@H](C)O)C(=O)N[C@@H](CO)C(=O)N[C@@H](CC(=O)O)C(=O)N[C@@H](Cc1ccc(O)cc1)C(=O)N[C@@H](CO)C(=O)N[C@H](C(=O)NC(C)(C)C(=O)N[C@@H](CC(C)C)C(=O)N[C@@H](CC(=O)O)C(=O)N[C@@H](CCCNC(=N)N)C(=O)NC(C)(C)C(=O)N[C@@H](C)C(=O)N[C@@H](CCC(N)=O)C(=O)NC(C)(C)C(=O)N[C@@H](CC(=O)O)C(=O)N[C@@H](Cc1ccccc1)C(=O)N[C@H](C(=O)N[C@@H](CC(N)=O)C(=O)N[C@@H](Cc1c[nH]c2ccccc12)C(=O)N[C@@H](CC(C)C)C(=O)N[C@@H](CC(C)C)C(=O)N[C@@H](C)C(=O)N[C@@H](CCCCNC(=O)COCCOCCNC(=O)COCCOCCNC(=O)CC[C@H](NC(=O)CC[C@H](NC(=O)CCCCCCCCCCCCCCCCC(=O)O)C(=O)O)C(=O)O)C(=O)N[C@@H](CCCNC(=N)N)C(=O)NCC(=O)O)C(C)C)[C@@H](C)CC [Compound 62] (H-[NMeY][Aib]EGTFISDYSI[Aib]LDR[Aib]AQ[Aib]DFVNWLLAK([AEEA-AEEA-γGlu-γGlu-C18 diacid])RG-OH)
solubility (pH 7.4): ≥ 15 mg/mL | solubility (pH 7.4, aqueous buffer): ≥ 30 mg/mL

CC[C@H](C)[C@H](NC(=O)[C@H](Cc1ccccc1)NC(=O)[C@@H](NC(=O)CNC(=O)[C@H](CCC(=O)O)NC(=O)C(C)(C)NC(=O)[C@H](Cc1ccc(O)cc1)NC)[C@@H](C)O)C(=O)N[C@@H](CO)C(=O)N[C@@H](CC(=O)O)C(=O)N[C@@H](Cc1ccc(O)cc1)C(=O)N[C@@H](CO)C(=O)N[C@H](C(=O)NC(C)(C)C(=O)N[C@@H](CCCCNC(=O)COCCOCCNC(=O)COCCOCCNC(=O)CC[C@H](NC(=O)CC[C@H](NC(=O)CCCCCCCCCCCCCCCCC(=O)O)C(=O)O)C(=O)O)C(=O)N[C@@H](CC(=O)O)C(=O)N[C@@H](CCCNC(=N)N)C(=O)NC(C)(C)C(=O)N[C@@H](C)C(=O)N[C@@H](CCC(N)=O)C(=O)NC(C)(C)C(=O)N[C@@H](CC(N)=O)C(=O)N[C@@H](Cc1ccccc1)C(=O)N[C@H](C(=O)N[C@@H](CC(N)=O)C(=O)N[C@@H](Cc1c[nH]c2ccccc12)C(=O)N[C@@H](CC(C)C)C(=O)N[C@@H](CC(C)C)C(=O)N[C@@H](C)C(=O)N[C@@H](CCC(N)=O)C(=O)N[C@@H](CCCNC(=N)N)C(=O)N1CCC[C@H]1C(=O)N[C@@H](CO)C(=O)N[C@@H](CO)C(=O)NCC(=O)N[C@@H](C)C(=O)N1CCC[C@H]1C(=O)N1CCC[C@H]1C(=O)N1CCC[C@H]1C(=O)N[C@@H](CO)C(N)=O)C(C)C)[C@@H](C)CC [Compound 28] (H-[NMeY][Aib]EGTFISDYSI[Aib]K([AEEA-AEEA-γGlu-γGlu-C18 diacid])DR[Aib]AQ[Aib]NFVNWLLAQRPSSGAPPPS-NH2)
solubility (pH 7.4, aqueous buffer, pH 7.4 Phosphate Buffer - Solubility, 200 mM Phosphate buffer pH 7.4): ≥ 30 mg/mL | solubility (pH 7.4, solubility in phosphate buffer at pH 7.4, 200 mM phosphate buffer pH 7.4): ≥ 15 mg/mL
